Laboratory results: publication PMC3729217 (Chembiochem : a European journal of chemical biology, 2010)

Key:
[1] = target: PKCα-EGFP (Rattus norvegicus, UniProt P05696); test: Plasma membrane translocation of PKCα-EGFP in transfected MCF-7 cells; format: cell-based; details: MCF-7 cells expressing PKCα-EGFP, stimulated with 40 μM, 37°C
[2] = target: T1, PKCε-EGFP (Rattus norvegicus, UniProt P09216); test: Plasma membrane translocation of PKCε-EGFP in transfected MCF-7 cells; format: cell-based; details: MCF-7 cells expressing PKCε-EGFP, stimulated with 40 μM, 37°C
T1 sequence (P09216 1-737): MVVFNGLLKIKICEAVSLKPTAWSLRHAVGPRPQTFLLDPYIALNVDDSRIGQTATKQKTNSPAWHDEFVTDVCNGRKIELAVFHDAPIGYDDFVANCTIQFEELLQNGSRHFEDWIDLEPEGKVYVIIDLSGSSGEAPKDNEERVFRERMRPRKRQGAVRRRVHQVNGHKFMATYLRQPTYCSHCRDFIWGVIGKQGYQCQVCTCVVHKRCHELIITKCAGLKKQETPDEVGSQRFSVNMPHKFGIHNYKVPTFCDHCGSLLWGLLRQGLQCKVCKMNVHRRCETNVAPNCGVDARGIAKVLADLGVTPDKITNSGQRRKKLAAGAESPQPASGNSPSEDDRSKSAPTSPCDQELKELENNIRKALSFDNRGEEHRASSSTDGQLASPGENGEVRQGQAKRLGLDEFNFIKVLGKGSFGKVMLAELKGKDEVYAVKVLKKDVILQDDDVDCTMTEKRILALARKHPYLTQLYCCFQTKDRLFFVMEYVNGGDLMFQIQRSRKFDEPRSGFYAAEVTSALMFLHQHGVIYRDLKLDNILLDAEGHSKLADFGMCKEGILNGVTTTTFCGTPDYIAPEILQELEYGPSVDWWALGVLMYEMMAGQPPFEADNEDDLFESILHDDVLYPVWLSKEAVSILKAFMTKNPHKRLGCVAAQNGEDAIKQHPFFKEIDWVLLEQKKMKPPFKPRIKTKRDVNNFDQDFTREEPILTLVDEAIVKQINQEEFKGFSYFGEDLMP

[3] = target: PKCδ-ECFP (Homo sapiens, UniProt Q05655); test: Plasma membrane translocation of PKCδ-ECFP in transfected MCF-7 cells; format: cell-based, rat; details: MCF-7 cells expressing PKCδ-ECFP, stimulated with 40 μM, 37°C
PKCδ-ECFP, sequence (Q05655 whole entry): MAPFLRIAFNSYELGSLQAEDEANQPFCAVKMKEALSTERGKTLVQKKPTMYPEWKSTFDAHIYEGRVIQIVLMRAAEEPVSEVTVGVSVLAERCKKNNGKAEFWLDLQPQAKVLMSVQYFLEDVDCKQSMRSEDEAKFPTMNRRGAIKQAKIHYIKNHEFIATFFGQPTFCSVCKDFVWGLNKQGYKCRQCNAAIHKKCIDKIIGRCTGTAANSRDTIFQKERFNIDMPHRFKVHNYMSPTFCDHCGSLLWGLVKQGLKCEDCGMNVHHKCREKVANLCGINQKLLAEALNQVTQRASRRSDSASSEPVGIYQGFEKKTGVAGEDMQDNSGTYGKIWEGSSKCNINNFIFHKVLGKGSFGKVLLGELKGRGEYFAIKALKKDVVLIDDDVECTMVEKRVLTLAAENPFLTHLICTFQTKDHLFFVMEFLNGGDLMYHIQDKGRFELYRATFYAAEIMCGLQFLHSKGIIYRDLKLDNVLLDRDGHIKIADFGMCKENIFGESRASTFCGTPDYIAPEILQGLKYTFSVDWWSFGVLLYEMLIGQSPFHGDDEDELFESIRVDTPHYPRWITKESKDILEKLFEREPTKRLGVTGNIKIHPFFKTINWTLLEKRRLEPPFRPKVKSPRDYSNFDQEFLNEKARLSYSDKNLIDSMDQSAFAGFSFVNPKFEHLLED

In the case of `CCCCCCCCCCCCCC(=O)O[C@@H]1[C@@H](C)[C@@]2(O)[C@@H](C=C(CO)C[C@]3(O)C(=O)C(C)=C[C@@H]23)[C@@H]2C(C)(C)[C@]12OC(C)=O` [PMA, phorbol 12-myristate 13-acetate], the “t1/2, half-time of plasma membrane localization” value (shortened to “t1/2, half-time”) [1] is reported as 547 ± 192 s, the “t1/2, half-time” value [2] is reported as 31 ± 18 s and the “t1/2, half-time” value [3] is reported as 47 ± 22 s.
